Consider eleven compounds from ChEMBL document CHEMBL1125282, “Evaluation of desferrithiocin and its synthetic analogues as orally effective iron chelators” (1991).

Holding throughout (assay type): functional
The subject of assay [1] is Rattus norvegicus. Kind of assay: Total iron output induced by the compound (oral administration) and bile duct cannulated rat and the drug-promoted iron excretion was monitored in the bile at 24 hr.
Assay [2] relates to Rattus norvegicus. As to the kind of experiment: Total iron output induced by the compound (oral administration) and bile duct cannulated rat and the drug-promoted iron excretion was monitored in the bile at 21 hr. Note: test concentration or dose not given here.
The subject of assay [3] is Rattus norvegicus. As to the kind of experiment: Total iron output induced by the compound (oral administration) and bile duct cannulated rat and the drug-promoted iron excretion was monitored in the bile at 15 hr. Note: test concentration or dose not given here.
For assay [4], the system named is Rattus norvegicus. As to the kind of experiment: Total iron output induced by the compound (oral administration) and bile duct cannulated rat and the drug-promoted iron excretion was monitored in the bile at 18 h.
Assay [5] deals with Rattus norvegicus. Kind of assay: Total iron output induced by the compound (oral administration) and bile duct cannulated rat and the drug-promoted iron excretion was monitored in the bile at 9 h.
Assay [6] concerns Rattus norvegicus. As to the kind of experiment: Total iron output induced by the compound (oral administration) and bile duct cannulated rat and the drug-promoted iron excretion was monitored in the bile at 12 hr.
The test system of assay [7] is Rattus norvegicus. As to the kind of experiment: Total iron output induced by the compound (oral administration) and bile duct cannulated rat and the drug-promoted iron excretion was monitored in the urine at 24 hr.
The subject of assay [8] is Rattus norvegicus. As to the kind of experiment: Total iron output induced by the compound (oral administration) and bile duct cannulated rat and the drug-promoted iron excretion was monitored in the bile at 3h. Note: test concentration or dose not given here.
Assay [9] deals with Rattus norvegicus. Kind of assay: Total iron output induced by the compound (oral administration) and bile duct cannulated rat and the drug-promoted iron excretion was monitored in the bile at 6 hr. Note: test concentration or dose not given here.
The subject of assay [10] is Rattus norvegicus. Kind of assay: Total iron output induced by the compound (sc administration) and bile duct cannulated rat and the drug-promoted iron excretion was monitored in the bile at 18 h.
Assay [11] deals with Rattus norvegicus. As to the kind of experiment: Total iron output induced by the compound (sc administration) and bile duct cannulated rat and the drug-promoted iron excretion was monitored in the bile at 6 hr.
For assay [12], the system named is Rattus norvegicus. Kind of assay: Total iron output induced by the compound (sc administration) and bile duct cannulated rat and the drug-promoted iron excretion was monitored in the bile at 24 hr.
For assay [13], the system named is Rattus norvegicus. Kind of assay: Total iron output induced by the compound (sc administration) and bile duct cannulated rat and the drug-promoted iron excretion was monitored in the urine at 24 hr.
For assay [14], the system named is Rattus norvegicus. As to the kind of experiment: Total iron output induced by the compound (sc administration) and bile duct cannulated rat and the drug-promoted iron excretion was monitored in the bile at 9 h.
For assay [15], the system named is Rattus norvegicus. Kind of assay: Total iron output induced by the compound (sc administration) and bile duct cannulated rat and the drug-promoted iron excretion was monitored in the bile at 3h.
In assay [16] the test system is Rattus norvegicus. As to the kind of experiment: Total iron output induced by the compound (sc administration) and bile duct cannulated rat and the drug-promoted iron excretion was monitored in the bile at 12 hr.
The subject of assay [17] is Rattus norvegicus. Kind of assay: Total iron output induced by the compound (sc administration) and bile duct cannulated rat and the drug-promoted iron excretion was monitored in the bile at 21 hr.
Assay [18] deals with Rattus norvegicus. As to the kind of experiment: Total iron output induced by the compound (sc administration) and bile duct cannulated rat and the drug-promoted iron excretion was monitored in the bile at 15 hr.

Molecules are shown by their SMILES.

For the compound `O=C([O-])[C@@H]1CSC(c2ncccc2O)=N1.[Na+]`, the Total iron output with Rattus norvegicus [1] is 81.9 µg/kg; in the assay with Rattus norvegicus [2], 74.8 µg/kg; in the assay with Rattus norvegicus [3], 56.3 µg/kg; in the assay on Rattus norvegicus [4], 65.3 µg/kg; in the assay with Rattus norvegicus [5] it was 40.7 µg/kg; with Rattus norvegicus [6], 48.5 µg/kg. Also, the Total iron output with Rattus norvegicus [7] is 21 µg/kg; in the assay with Rattus norvegicus [8], 9 µg/kg; with Rattus norvegicus [9], 28.1 µg/kg.

For the compound `O=C(O)[C@@H]1CSC(c2ncccc2O)=N1`, the Total iron output in the assay on Rattus norvegicus [1] was found to be 217.2 µg/kg; in the assay with Rattus norvegicus [2] it was 209.6 µg/kg; in the assay with Rattus norvegicus [3], 194 µg/kg; with Rattus norvegicus [4], 201.3 µg/kg; with Rattus norvegicus [5] it was 154 µg/kg; in the assay on Rattus norvegicus [6] it was 182.3 µg/kg. For the same compound, the Total iron output with Rattus norvegicus [7] is 14.1 µg/kg; in the assay with Rattus norvegicus [8], 28.7 µg/kg; in the assay with Rattus norvegicus [9], 98.2 µg/kg.

As to `C[C@]1(C(=O)[O-])CSC(c2ncccc2O)=N1.[Na+]` [DESFERRITHIOCIN SODIUM], the Total iron output is 159.3 µg/kg in the assay on Rattus norvegicus [1]; 153.2 µg/kg in the assay with Rattus norvegicus [2]; 135.9 µg/kg in the assay with Rattus norvegicus [3]; 146.8 µg/kg in the assay with Rattus norvegicus [4]; 111.7 µg/kg in the assay with Rattus norvegicus [5]; 125.8 µg/kg with Rattus norvegicus [6]. Moreover, the Total iron output is 38.43 µg/kg in the assay with Rattus norvegicus [7], 21.8 µg/kg in the assay on Rattus norvegicus [8] and 70 µg/kg with Rattus norvegicus [9].

`C[C@]1(C(=O)NCCCCNCCCNC(=O)[C@@]2(C)CSC(c3ncccc3O)=N2)CSC(c2ncccc2O)=N1`: the Total iron output in the assay with Rattus norvegicus [1] stood at 92.8 µg/kg; with Rattus norvegicus [2], 82.2 µg/kg; in the assay on Rattus norvegicus [3], 65.8 µg/kg; in the assay with Rattus norvegicus [4], 74 µg/kg; in the assay on Rattus norvegicus [5] it was 45.2 µg/kg; with Rattus norvegicus [6] it was 56.6 µg/kg. In addition, the Total iron output was found to be 18 µg/kg with Rattus norvegicus [7], 13.2 µg/kg in the assay with Rattus norvegicus [8] and 30 µg/kg in the assay on Rattus norvegicus [9].

As to `O=C(O)[C@@H]1CSC(c2ccccn2)=N1`, the Total iron output in the assay on Rattus norvegicus [1] was determined as 71.9 µg/kg; in the assay on Rattus norvegicus [2], 64.1 µg/kg; in the assay with Rattus norvegicus [3], 47.1 µg/kg; with Rattus norvegicus [4], 56.2 µg/kg; with Rattus norvegicus [5], 31.2 µg/kg; in the assay on Rattus norvegicus [6], 39.5 µg/kg. The Total iron output with Rattus norvegicus [7] came to 14.2 µg/kg; in the assay with Rattus norvegicus [8] it was 11.8 µg/kg; with Rattus norvegicus [9], 22.5 µg/kg.

As to `COC(=O)[C@@H]1CSC(c2ncccc2O)=N1`, the Total iron output came out at 93.3 µg/kg in the assay with Rattus norvegicus [1]; 85.3 µg/kg in the assay on Rattus norvegicus [2]; 74.7 µg/kg with Rattus norvegicus [3]; 81 µg/kg in the assay on Rattus norvegicus [4]; 59.9 µg/kg in the assay with Rattus norvegicus [5]; 68.7 µg/kg in the assay on Rattus norvegicus [6]. The figures for the Total iron output with Rattus norvegicus [7], in the assay on Rattus norvegicus [8] and in the assay on Rattus norvegicus [9] were 18.7 µg/kg, 42.9 µg/kg and 53.3 µg/kg, respectively.

Turning to `COC(=O)[C@H]1N=C(c2ncccc2O)O[C@@H]1C`, the Total iron output in the assay with Rattus norvegicus [1] turned out to be 60.8 µg/kg; in the assay with Rattus norvegicus [2], 55.1 µg/kg; in the assay with Rattus norvegicus [3], 43.7 µg/kg; in the assay on Rattus norvegicus [4], 49.4 µg/kg; with Rattus norvegicus [5], 20.2 µg/kg; in the assay with Rattus norvegicus [6], 37.3 µg/kg. In addition, the Total iron output in the assay with Rattus norvegicus [7] was determined as 7.6 µg/kg; with Rattus norvegicus [8] it was 11.3 µg/kg; in the assay with Rattus norvegicus [9] it was 21.3 µg/kg.

With `O=C([O-])[C@@H]1CSC(c2ccccn2)=N1.[Na+]`, the Total iron output stood at 62.1 µg/kg with Rattus norvegicus [1]; 56.8 µg/kg in the assay with Rattus norvegicus [2]; 42.2 µg/kg in the assay with Rattus norvegicus [3]; 49.6 µg/kg with Rattus norvegicus [4]; 26.2 µg/kg in the assay with Rattus norvegicus [5]; 34.9 µg/kg in the assay with Rattus norvegicus [6]. The Total iron output in the assay with Rattus norvegicus [7] was found to be 11.9 µg/kg; with Rattus norvegicus [8] it was 7.1 µg/kg; in the assay with Rattus norvegicus [9] it was 16.6 µg/kg.

With `CC(=O)N(O)CCCCCNC(=O)CCC(=O)N(O)CCCCCNC(=O)CCC(=O)N(O)CCCCCN` [DEFEROXAMINE], the Total iron output in the assay with Rattus norvegicus [1] amounted to 135 µg/kg; with Rattus norvegicus [10] it was 210.7 µg/kg; with Rattus norvegicus [11], 105.9 µg/kg; with Rattus norvegicus [12], 228.4 µg/kg; in the assay with Rattus norvegicus [2], 128.7 µg/kg; with Rattus norvegicus [13], 49.2 µg/kg. Further, the Total iron output was 110.8 µg/kg in the assay on Rattus norvegicus [3]; 119.8 µg/kg in the assay with Rattus norvegicus [4]; 76.8 µg/kg in the assay with Rattus norvegicus [5]; 152.8 µg/kg in the assay on Rattus norvegicus [14]; 97.1 µg/kg in the assay on Rattus norvegicus [6]; 43.6 µg/kg in the assay with Rattus norvegicus [15]. The Total iron output in the assay with Rattus norvegicus [16] amounted to 173.9 µg/kg; in the assay on Rattus norvegicus [7] it was 16.5 µg/kg; in the assay on Rattus norvegicus [17] it was 219.8 µg/kg; in the assay with Rattus norvegicus [18], 196.2 µg/kg; in the assay on Rattus norvegicus [8] it was 14.7 µg/kg; in the assay on Rattus norvegicus [9], 43.9 µg/kg.

For `C[C@]1(C(=O)O)CSC(c2ncccc2O)=N1` [DESFERRITHIOCIN], the Total iron output in the assay on Rattus norvegicus [1] stood at 268.5 µg/kg; with Rattus norvegicus [2], 263.1 µg/kg; in the assay on Rattus norvegicus [3], 245.6 µg/kg; in the assay on Rattus norvegicus [4], 253.7 µg/kg; in the assay with Rattus norvegicus [5], 205.3 µg/kg; in the assay on Rattus norvegicus [6] it was 234.8 µg/kg. Besides, the Total iron output with Rattus norvegicus [7] is 27 µg/kg; in the assay on Rattus norvegicus [8], 64.5 µg/kg; in the assay on Rattus norvegicus [9] it was 143 µg/kg.

On to `O=C([O-])[C@@H]1CSC(c2ccccc2O)=N1.[Na+]`, for which the Total iron output in the assay with Rattus norvegicus [1] stood at 246.9 µg/kg; in the assay with Rattus norvegicus [2], 238.1 µg/kg; in the assay with Rattus norvegicus [3], 210.6 µg/kg; with Rattus norvegicus [4] it was 226.8 µg/kg; with Rattus norvegicus [5], 143.8 µg/kg; in the assay on Rattus norvegicus [6], 184.9 µg/kg. Moreover, the Total iron output was 18.67 µg/kg in the assay on Rattus norvegicus [7], 28.6 µg/kg with Rattus norvegicus [8] and 91.6 µg/kg in the assay with Rattus norvegicus [9].
